Columns and labels:
HUVEC [1] = assay: Direct neural differentiation of HUVEC; assay type: cell-based, human
Method: (§1) Therefore, antisense suppression of CD47 is sufficient to induce reprogramming of primary endothelial cells of a mesodermal lineage into an ectodermal lineage.
(§2) A new vial of HUVEC at passage 1 was thawed and split in to two 25 cm^3 Nunc tissue culture flasks. One flask (P1) was treated with CD47-MO (2.5 μM). The other was kept as untreated. The HUVEC were transferred in to new Nunc tissue culture flask 75 cm^3 and cultured for 2 weeks using EGM2 medium. After 2 weeks, the HUVEC (untreated and CD47-MO treated) were assessed for generation of EBs, neural differentiation, and cardiomyocytes differentiation. […] Direct Neural Differentiation media: Equal numbers of HUVEC cells (untreated and cd47-mo) were cultured with neural basal media (same for mouse lung endothelial cells) for 6 days. […] After 6 days, the neural basal media was replaced with neural differentiation media (same used for mouse lung endothelial cells). None of the untreated HUVEC survived.

HUVEC [2] = assay: EB formation of HUVEC in serum free medium; assay type: cell-based, human; conditions: after 3-6 days
Method: as §2

HUVEC [3] = assay: Sustained proliferation / self-renewal of HUVEC in continuous culture; assay type: cell-based, human
From the text: Human umbilical vein endothelial cells (HUVEC), which express CD47, normally become senescent with repeated passage in tissue culture (FIG. 16A).
as §1

HUVEC [4] = assay: MTS proliferation assay of treated HUVEC; assay type: cell-based, human
Method: Cell proliferation assays: Equal numbers of mouse lung endothelial cells from WT and CD47 (Passage 1) were plated in 96 well plates using RPMI+1% FBS. After 72 hours, net cell proliferation was assessed by the increase in formazan absorbance versus controls assessed at time 0 using Cell Titer 96R aqueous MTS kit (Promega, Madison, Wis.). DNA synthesis was measured using a BrdU Assay (EMD Biosciences, Billerica, Mass.).
Proliferative capacities of the treated HUVEC (CD47 morpholino, 7N3 peptide, or 604 control peptide) were assessed using MTS assays.

[5] = system: WT splenic T cells from c-Myc-EGFP knock-in mice; assay: c-Myc mRNA after CD47 morpholino knockdown in T cells; assay type: cell-based, mouse
Method: RNA extraction and Real Time PCR: Total RNA was extracted using TRIzol® reagent (Invitrogen, Rockville, Md.) 24-36 hours after transfection or as indicated. Harvested mouse tissues were frozen in liquid nitrogen or placed into RNA Later™ RNA Stabilization Reagent (Ambion, Life Technologies, Grand Island, N.Y.). Whole organs (lungs, spleen, kidney, testis, skeletal muscle, brain, heart, and liver) were homogenized in TRIzol® reagent, and RNA was isolated, cDNA was prepared using First Maxima First Strand cDNA Synthesis kit for RT-qPCR (Fermentas Life Sciences, Glen Burnie, Md.). Real Time PCR was performed using the primers listed herein as SEQ ID NOs: 3-34, and SYBR Green PCR master reaction mix (AB applied Sciences, Life Technologies, Grand Island, N.Y.) on an MJ Research OPTICON I instrument (Bio-Rad) with the following amplification program: 95° C. for 15 minutes, followed by 40 cycles of 95° C. for 15 seconds, 58° C. for 20 seconds, 72° C. for 25 seconds, and 7° C. for 1 minute. Melting curves were performed for each product from 30° C. to 95° C. reading every 0.5° C. with a 6-second dwell time. The fold changes in mRNA expression were calculated by normalizing to hypoxanthine phosphoribosyltransferase (HPRT1) and TATA-box binding protein associated factor (TAF9) for mouse tissues and endothelial cells, or β-2 microglobulin (B2M) mRNA levels for spleen and isolated splenocytes. […]

HUVEC [6] = assay: Direct cardiomyocyte differentiation of HUVEC; assay type: cell-based, human
Method: Finally, equal numbers of HUVEC (untreated and cd47-mo treated at passage 1) were plated in 6-well plates with EGM2 media for 24 hours. The next day, EGM2 medium was replaced with cardiomyocyte differentiation media (Millipore). […] CD47-MO cells survived up to 10 days. Thus, antisense suppression of CD47 is sufficient to induce reprogramming of primary endothelial cells into cardiomyocyte lineage.

CD47 = assay: In vivo morpholino knockdown of CD47 in WT mice; set-up: species or system mouse; conditions: for Oct4 mRNA level in spleen / Sox2 mRNA level in spleen / c-Myc mRNA level in spleen: at 48 hours, WT mice; for CD47 protein expression in vivo: intraperitoneal injection into WT mice
Method: RNA extraction and Real Time PCR: Total RNA was extracted using TRIzol® reagent (Invitrogen, Rockville, Md.) 24-36 hours after transfection or as indicated. Harvested mouse tissues were frozen in liquid nitrogen or placed into RNA Later™ RNA Stabilization Reagent (Ambion, Life Technologies, Grand Island, N.Y.). Whole organs (lungs, spleen, kidney, testis, skeletal muscle, brain, heart, and liver) were homogenized in TRIzol® reagent, and RNA was isolated, cDNA was prepared using First Maxima First Strand cDNA Synthesis kit for RT-qPCR (Fermentas Life Sciences, Glen Burnie, Md.). Real Time PCR was performed using the primers listed herein as SEQ ID NOs: 3-34, and SYBR Green PCR master reaction mix (AB applied Sciences, Life Technologies, Grand Island, N.Y.) on an MJ Research OPTICON I instrument (Bio-Rad) with the following amplification program: 95° C. for 15 minutes, followed by 40 cycles of 95° C. for 15 seconds, 58° C. for 20 seconds, 72° C. for 25 seconds, and 7° C. for 1 minute. Melting curves were performed for each product from 30° C. to 95° C. reading every 0.5° C. with a 6-second dwell time. The fold changes in mRNA expression were calculated by normalizing to hypoxanthine phosphoribosyltransferase (HPRT1) and TATA-box binding protein associated factor (TAF9) for mouse tissues and endothelial cells, or β-2 microglobulin (B2M) mRNA levels for spleen and isolated splenocytes. B2M was used for normalization of mRNA levels in human cells. Note that the total RNA yield per cell was higher for all CD47-null and CD47-deficient cells and tissues as compared to WT.
CD47 knockdown in T cells and in WT mice: A translation-blocking antisense morpholino oligonucleotide complementary to human and murine CD47 ([…]; SEQ ID NO: 35) and a 5-base mismatch control morpholino (CGTgACAGcCAcGACCgACTGCgCA; SEQ ID NO: 36) were obtained from GeneTools, LLC (Philomath, Oreg.) as previously described (Isenberg et al., Circ Res 100, 712-720, 2007). Primary T cells isolated from c-Myc EGFP knock-in mouse were transfected using morpholinos (2.5 μM) along with Endo-porter (GeneTools, LLC) delivery reagent according to manufacturer's instructions. Mice were treated by injection of 750 μl of 10 μM morpholino in saline as described (Maxhimer et al., Sci. Transl. Med. 1, 3ra7, 2009). Organs were harvested for mRNA isolation after 48 hours.

Sequence: CGTCACAGGCAGGACCCACTGCCCA (all phosphorodiamidate morpholino (PMO)) [CD47 morpholino]
- survival in neural basal media (HUVEC [1]; 6 days, CD47-MO 2.5 μM): survived better than untreated
- phenotype in neural differentiation media (HUVEC [1]; after 6 days neural basal media): exhibited neural phenotype
- appearance of cells with neuronal phenotypes (HUVEC [1]; direct transfer into neural differentiation medium): sporadic appearance of cells with neuronal phenotypes
- survival in neural differentiation media (HUVEC [1]; numbers were low): up to 15 days
- cell aggregation in serum free medium (HUVEC [2]): formed different phenotype cell aggregation
- self-renewal (HUVEC [3]; antisense CD47 morpholino at 2.5 μM, one treatment): enabled self-renewal
- proliferative response after second treatment (HUVEC [3]; second treatment, same concentration (2.5 μM)): enhanced proliferative response
- proliferation (MTS) (HUVEC [4]; 3 weeks post-treatment, relative to control HUVEC): significantly increased proliferation
- proliferation (MTS) (HUVEC [4]; 6 days post-treatment): slight but not significant enhancement of proliferation
- increase in c-Myc mRNA level ([5]; at 24 h, morpholino 2.5 μM): 7 fold
- c-Myc mRNA expression (FIG. 6A) ([5]; in words, legend says WT lung endothelial cells): increases
- survival in cardiomyocyte differentiation media (HUVEC [6]): up to 10 days
- survival and differentiation in cardiomyocyte differentiation media (HUVEC [6]; untreated HUVEC unable to survive after 3 days): survived and underwent differentiation
- Oct4 mRNA level in spleen (CD47): induction
- Sox2 mRNA level in spleen (CD47): induction
- c-Myc mRNA level in spleen (CD47): induction
- Oct4 mRNA level in spleen (CD47; listed as CD47-MO): elevates
- Sox2 mRNA level in spleen (CD47; listed as CD47-MO): elevates
- c-Myc mRNA level in spleen (CD47; listed as CD47-MO): elevates
- CD47 protein expression in vivo (CD47): significantly decreased
- CD47 protein expression in vivo (CD47; listed as CD47-morpholino): knockdown

Reference: patent publication US11692175B2, “Methods for generation of pluripotent and multipotent cells” (The USA, as represented by the Secretary, Dept. of Health …, priority 2012, dated 2023)
